In patent US20260144788A1, “COMPOUND FOR SHP2 PROTEIN DEGRADATION AND MEDICAL USES THEREOF” (UBIX THERAPEUTICS, INC., priority 2022, published 2026):

Target: T1, SHP2 protein (Homo sapiens, UniProt Q06124)
T1 sequence (Q06124 1-593): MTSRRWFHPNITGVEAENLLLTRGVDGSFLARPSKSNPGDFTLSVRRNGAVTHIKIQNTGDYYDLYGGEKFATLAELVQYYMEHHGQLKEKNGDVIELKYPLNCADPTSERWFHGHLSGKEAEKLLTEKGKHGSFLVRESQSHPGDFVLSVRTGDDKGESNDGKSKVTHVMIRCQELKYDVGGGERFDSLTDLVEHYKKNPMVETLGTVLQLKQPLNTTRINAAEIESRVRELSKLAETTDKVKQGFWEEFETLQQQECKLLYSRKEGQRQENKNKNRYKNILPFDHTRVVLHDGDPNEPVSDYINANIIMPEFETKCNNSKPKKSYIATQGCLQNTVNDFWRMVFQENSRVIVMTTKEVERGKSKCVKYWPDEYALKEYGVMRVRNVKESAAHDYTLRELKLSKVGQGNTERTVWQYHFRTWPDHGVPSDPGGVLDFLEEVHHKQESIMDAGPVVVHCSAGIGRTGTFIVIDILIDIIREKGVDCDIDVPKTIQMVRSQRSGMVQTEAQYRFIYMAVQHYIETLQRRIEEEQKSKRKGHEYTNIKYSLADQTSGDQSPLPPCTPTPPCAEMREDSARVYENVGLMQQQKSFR
Assay: Measurement of SHP2 protein degradation in MV-4-11 cells (western blotting)
Assay type: cell-based
Design: endogenous in cells
Settings: harvested after 24 hours
Description: MV-4-11 cells were treated with the synthesized Example compounds, and the amount of SHP2 protein present in the cells was measured using western blotting detection. The protocol for the experiment conducted using MV-4-11 cells is as follows.
[Culture] MV-4-11 cells were resuspended in IMDM MEDIUM (Hyclone, SH30228.01), 5% FBS (Hyclone, SV30207.02), 1% Penicillin-streptomycin (Welgene, LS 202-02) media and seeded at 1×10^6/mL in 12-well plates (1 mL each).
[Compound treatment]12-well plates were treated as follows. 10 mM stock dissolved in DMSO was serially diluted 1/100 or 1/10 with media, and the compounds were treated to the cells at a final concentration of 0.01, 0.1, 1 μM or 0.001, 0.01, 0.1 μM, and harvested after 24 hours. For the negative control group, DMSO diluted 1/100 or 1/1000 in media was added (3 μL DMSO+297 μL media or 1 μL DMSO+999 μL media).
[Harvest] Each well was pipetted with a 1 mL pipette, collected in a 1.5 mL microtube, and centrifuged (500 g, 5 min, 4° C.). The supernatant was removed, washed with PBS, and centrifuged again (500 g, 5 min, 4° C.). The supernatant was removed and a pellet was prepared.
[Cell lysis and sample preparation] Lysis buffer was prepared as follows. RIPA buffer (Biosesang, RC2038-050-00)+0.5 mM PMSF (SIGMA, P7626)+1× Protease/Phosphatase Inhibitor (Cell signaling, 5872S) were added at 50 μL per tube and incubated on ice for 30 minutes (vortexed at 0 and 30 minutes). After sonication (10 sec pulse, 30 sec rest, 5 cycles, 70% amplification) and centrifugation (15,000 g, 15 min, 4° C.), only the supernatant was transferred to a microtube. RIPA buffer 7.5 μL and sample 2.5 μL were added to a 96-well plate to dilute to 1/4, and then BCA Protein Assay Kit (iNtRON, 21071) A and B were mixed in a 50:1 ratio and 200 μL each was added. After that, the plate was incubated at 37° C. for 30 minutes and left at room temperature for 10 minutes. After shaking for 10 seconds with a SYNERGY H1 microplate reader from BioTek, the absorbance was measured at 562 nm. The protein was quantified using the measured value to prepare a sample, which was then incubated at 70° C. for 10 minutes. The sample buffer used at this time is a mixture of NuPAGE or Bolt 4× sample buffer (Invitrogen) and each 10× sample reducing agent according to the gel to be used, and RIPA buffer was used for protein dilution.
[Western blotting detection] Equal amounts of samples were loaded onto NuPAGE or Bolt Bis-tris 4-12% gradient gels and run (200 V, 35 min). This was transferred to […] NC membranes using Trans-blot Turbo (BIO-RAD) (1.3 A constant, 25 V limit, 15 min), and was blocked at room temperature for 1 hour with Skim milk or Intercept Blocking Buffer (LI-COR, 927-60001):0.1% TBST=1:1. Anti-SHPTP2 Mouse (1:500 in 2% BSA/0.2% TBST, size: 70 kDa, Santacruz sc-7384) was incubated overnight at 4° C., and Anti-GAPDH Rabbit (1:2,000 in 2% BSA/0.2% TBST, size: 37 kDa, CST #2118) was incubated at room temperature for 1.5 hours or 3 hours. After washing three times for 5 minutes each with 0.2% TBST washing buffer, secondary antibodies Anti-Mouse IgG (1:5,000 in 2% BSA/0.2% TBST, CST) and IRDye® 680RD Goat anti-Rabbit IgG Secondary Antibody (1:10,000 in 2% BSA/0.2% TBST, LI-COR 926-68071) were added, and incubated on a rocker at room temperature for 45 minutes. The resultants were washed five times for 5 minutes each with 0.2% TBST washing buffer, and detected using LI-COR's Odyssey. GAPDH was detected with a 700 nm channel, and SHPTP2 was detected using SuperSignal West Pico PLUS Chemiluminescent Substrate.

| SHP2% degradation (0.01 μM) [%] | SHP2% degradation (0.1 μM) [%] | SMILES |
| --- | --- | --- |
| 78.8 | 98.2 | Cc1ncsc1-c1ccc(CNC(=O)[C@@H]2C[C@@H](O)CN2C(=O)[C@@H](NC(=O)C2(F)CC2)C(C)(C)C)c(O[C@H]2CC[C@H](C(=O)N3CC(Nc4nccc(Sc5cnc(N6CCC(C)(CN)CC6)cn5)c4Cl)C3)CC2)c1 [Example 20, (2S,4R)—N-(2-(((1R,4S)-4-(3-((4-((5-(4-(aminomethyl)-4-methylpiperidin-1-yl)pyrazin-2-yl)thio)-3-chloropyridin-2-yl)amino)azetidine-1-carbonyl)cyclohexyl)oxy)-4-(4-methylthiazol-5-yl)benzyl)-1-((S)-2-(1-fluorocyclopropane-1-carboxamido)-3,3-dimethylbutanoyl)-4-hydroxypyrrolidine-2-carboxamide] |
| 81.1 | 99.7 | Cc1ncsc1-c1ccc(CNC(=O)[C@@H]2C[C@@H](O)CN2C(=O)[C@@H](NC(=O)C2(F)CC2)C(C)(C)C)c(O[C@H]2CC[C@H](C(=O)N3CC(Nc4nccc(Sc5cnc(N6CCC(C)(N)CC6)cn5)c4Cl)C3)CC2)c1 [Example 21, (2S,4R)—N-(2-(((1R,4S)-4-(3-((4-((5-(4-amino-4-methylpiperidin-1-yl)pyrazin-2-yl)thio)-3-chloropyridin-2-yl)amino)azetidine-1-carbonyl)cyclohexyl)oxy)-4-(4-methylthiazol-5-yl)benzyl)-1-((S)-2-(1-fluorocyclopropane-1-carboxamido)-3,3-dimethylbutanoyl)-4-hydroxypyrrolidine-2-carboxamide] |
| 74.2 | 99.8 | Cc1ncsc1-c1ccc(CNC(=O)[C@@H]2C[C@@H](O)CN2C(=O)[C@@H](NC(=O)C2(F)CC2)C(C)(C)C)c(O[C@H]2CC[C@H](C(=O)N3CCC(Nc4nccc(Sc5cnc(N6CCC(C)(CN)CC6)cn5)c4Cl)CC3)CC2)c1 [Example 23, (2S,4R)—N-(2-(((1R,4S)-4-(4-((4-((5-(4-(aminomethyl)-4-methylpiperidin-1-yl)pyrazin-2-yl)thio)-3-chloropyridin-2-yl)amino)piperidine-1-carbonyl)cyclohexyl)oxy)-4-(4-methylthiazol-5-yl)benzyl)-1-((S)-2-(1-fluorocyclopropane-1-carboxamido)-3,3-dimethylbutanoyl)-4-hydroxypyrrolidine-2-carboxamide] |
| 83.1 | 100.0 | Cc1ncsc1-c1ccc(CNC(=O)[C@@H]2C[C@@H](O)CN2C(=O)[C@@H](NC(=O)C2(F)CC2)C(C)(C)C)c(O[C@H]2CC[C@H](C(=O)N3CCC(Nc4nccc(Sc5cnc(N6CCC(C)(N)CC6)cn5)c4Cl)CC3)CC2)c1 [Example 24, (2S,4R)—N-(2-(((1R,4S)-4-(4-((4-((5-(4-amino-4-methylpiperidin-1-yl)pyrazin-2-yl)thio)-3-chloropyridin-2-yl)amino)piperidine-1-carbonyl)cyclohexyl)oxy)-4-(4-methylthiazol-5-yl)benzyl)-1-((S)-2-(1-fluorocyclopropane-1-carboxamido)-3,3-dimethylbutanoyl)-4-hydroxypyrrolidine-2-carboxamide] |
| 52.3 | 96.1 | Cc1ncsc1-c1ccc(CNC(=O)[C@@H]2C[C@@H](O)CN2C(=O)[C@@H](NC(=O)C2(F)CC2)C(C)(C)C)c(O[C@H]2CC[C@H](C(=O)N3CCN(c4nccc(Sc5cnc(N6CCC(C)(CN)CC6)cn5)c4Cl)CC3)CC2)c1 [Example 26, (2S,4R)—N-(2-(((1R,4S)-4-(4-(4-((5-(4-(aminomethyl)-4-methylpiperidin-1-yl)pyrazin-2-yl)thio)-3-chloropyridin-2-yl)piperazine-1-carbonyl)cyclohexyl)oxy)-4-(4-methylthiazol-5-yl)benzyl)-1-((S)-2-(1-fluorocyclopropane-1-carboxamido)-3,3-dimethylbutanoyl)-4-hydroxypyrrolidine-2-carboxamide] |
| 95.8 | 99.9 | CC(=O)N[C@H](C(=O)N1C[C@H](O)C[C@H]1C(=O)NCc1ccc(-c2scnc2C)cc1O[C@H]1CC[C@H](C(=O)N2CC(Nc3cccc(Sc4cnc(N5CCC(C)(CN)CC5)cn4)c3Cl)C2)CC1)C(C)(C)C [Example 27, (2S,4R)-1-((S)-2-acetamido-3,3-dimethylbutanoyl)-N-(2-(((1R,4S)-4-(3-((3-((5-(4-(aminomethyl)-4-methylpiperidin-1-yl)pyrazin-2-yl)thio)-2-chlorophenyl)amino)azetidine-1-carbonyl)cyclohexyl)oxy)-4-(4-methylthiazol-5-yl)benzyl)-4-hydroxypyrrolidine-2-carboxamide] |
| 97.2 | 99.9 | CC(=O)N[C@H](C(=O)N1C[C@H](O)C[C@H]1C(=O)NCc1ccc(-c2scnc2C)cc1O[C@H]1CC[C@H](C(=O)N2CC(Nc3cccc(Sc4cnc(N5CCC6(CC5)CO[C@@H](C)[C@H]6N)cn4)c3Cl)C2)CC1)C(C)(C)C [Example 29, (2S,4R)-1-((S)-2-acetamido-3,3-dimethylbutanoyl)-N-(2-(((1r,4S)-4-(3-((3-((5-((3S,4S)-4-amino-3-methyl-2-oxa-8-azaspiro[4.5]decan-8-yl)pyrazin-2-yl)thio)-2-chlorophenyl)amino)azetidine-1-carbonyl)cyclohexyl)oxy)-4-(4-methylthiazol-5-yl)benzyl)-4-hydroxypyrrolidine-2-carboxamide] |
| 86.1 | 99.9 | CC(=O)N[C@H](C(=O)N1C[C@H](O)C[C@H]1C(=O)NCc1ccc(-c2scnc2C)cc1O[C@H]1CC[C@H](C(=O)N2CC(Nc3cccc(Sc4cnc(N5CCC6(CC5)Cc5ccccc5[C@H]6N)cn4)c3Cl)C2)CC1)C(C)(C)C [Example 30, (2S,4R)-1-((S)-2-acetamido-3,3-dimethylbutanoyl)-N-(2-(((1R,4S)-4-(3-((3-((5-((S)-1-amino-1,3-dihydrospiro[indene-2,4′-piperidin]-1′-yl)pyrazin-2-yl)thio)-2-chlorophenyl)amino)azetidine-1-carbonyl)cyclohexyl)oxy)-4-(4-methylthiazol-5-yl)benzyl)-4-hydroxypyrrolidine-2-carboxamide] |
